Test results as given in the supplement of paper PMC11451515.

Test system: NOMO1
Assay: cell viability relative to DMSO control; higher = less cytotoxic
Settings: 48 h
Outline: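 Library compounds in DMSO were pin-dosed in an 11-point threefold series (47 μM to 0.79 nM) onto leukemia cells in 1536-well plates (5 μl). Plates held 500 cells/well of NOMO1 or SEM or 1000 cells/well of P12-Ichikawa, each adapted for at least four passages in each medium. Luminescence was read with CellTiter-Glo One after 48 h at 37°C. Viability means the per-plate percentage relative to DMSO wells, using cell-free wells as background.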

[1] = HPLM + 10% dialyzed FBS, 0.000781 µM
[2] = HPLM + 10% dialyzed FBS, 0.00234 µM
[3] = HPLM + 10% dialyzed FBS, 0.00702 µM
[4] = HPLM + 10% dialyzed FBS, 0.0211 µM
[5] = HPLM + 10% dialyzed FBS, 0.0632 µM
[6] = HPLM + 10% dialyzed FBS, 0.19 µM
[7] = HPLM + 10% dialyzed FBS, 0.569 µM
[8] = HPLM + 10% dialyzed FBS, 1.71 µM
[9] = HPLM + 10% dialyzed FBS, 5.12 µM
[10] = HPLM + 10% dialyzed FBS, 15.4 µM
[11] = HPLM + 10% dialyzed FBS, 46.1 µM
[12] = RPMI 5 mM glucose + 10% FBS, 0.000781 µM
[13] = RPMI 5 mM glucose + 10% FBS, 0.00234 µM
[14] = RPMI 5 mM glucose + 10% FBS, 0.00702 µM
[15] = RPMI 5 mM glucose + 10% FBS, 0.0211 µM
[16] = RPMI 5 mM glucose + 10% FBS, 0.0632 µM
[17] = RPMI 5 mM glucose + 10% FBS, 0.19 µM
[18] = RPMI 5 mM glucose + 10% FBS, 0.569 µM
[19] = RPMI 5 mM glucose + 10% FBS, 1.71 µM
[20] = RPMI 5 mM glucose + 10% FBS, 5.12 µM
[21] = RPMI 5 mM glucose + 10% FBS, 15.4 µM
[22] = RPMI 5 mM glucose + 10% FBS, 46.1 µM
[23] = RPMI 5 mM glucose + 10% dialyzed FBS, 0.000781 µM
[24] = RPMI 5 mM glucose + 10% dialyzed FBS, 0.00234 µM
[25] = RPMI 5 mM glucose + 10% dialyzed FBS, 0.00702 µM
[26] = RPMI 5 mM glucose + 10% dialyzed FBS, 0.0211 µM
[27] = RPMI 5 mM glucose + 10% dialyzed FBS, 0.0632 µM
[28] = RPMI 5 mM glucose + 10% dialyzed FBS, 0.19 µM
[29] = RPMI 5 mM glucose + 10% dialyzed FBS, 0.569 µM
[30] = RPMI 5 mM glucose + 10% dialyzed FBS, 1.71 µM
[31] = RPMI 5 mM glucose + 10% dialyzed FBS, 5.12 µM
[32] = RPMI 5 mM glucose + 10% dialyzed FBS, 15.4 µM
[33] = RPMI 5 mM glucose + 10% dialyzed FBS, 46.1 µM

Row | SMILES | cell viability [1] [%] | cell viability [2] [%] | cell viability [3] [%] | cell viability [4] [%] | cell viability [5] [%] | cell viability [6] [%] | cell viability [7] [%] | cell viability [8] [%] | cell viability [9] [%] | cell viability [10] [%] | cell viability [11] [%] | cell viability [12] [%] | cell viability [13] [%] | cell viability [14] [%] | cell viability [15] [%] | cell viability [16] [%] | cell viability [17] [%] | cell viability [18] [%] | cell viability [19] [%] | cell viability [20] [%] | cell viability [21] [%] | cell viability [22] [%] | cell viability [23] [%] | cell viability [24] [%] | cell viability [25] [%] | cell viability [26] [%] | cell viability [27] [%] | cell viability [28] [%] | cell viability [29] [%] | cell viability [30] [%] | cell viability [31] [%] | cell viability [32] [%] | cell viability [33] [%]
1 | Cc1nn(C)c(COc2ccc(N3CCN([S+](=O)([O-])N(C)C)CC3)cc2)c1-c1cccc2c(CCCOc3cccc4ccccc34)c(C(=O)O)n(CCN3CCOCC3)c12 | 96.9 | 107 | 121 | 122 | 124 | 108 | 137 | 101 | 25.9 | 36.8 | 32.1 | 100 | 110 | 105 | 110 | 112 | 105 | 118 | 111 | 25.2 | 108 | 22.8 | 90.6 | 112 | 110 | 116 | 122 | 111 | 117 | 107 | 109 | 119 | 91.8
2 | CCOc1cc2ncc(C#N)c(Nc3ccc(OCc4ccccn4)c(Cl)c3)c2cc1NC(=O)/C=C/CN(C)C |  |  |  |  |  |  |  |  |  |  |  | 119 | 109 | 114 | 105 | 112 | 124 | 49.7 | 20.8 | 13.6 | 11.2 | 8.95 | 116 | 111 | 103 | 109 | 117 | 113 | 83.9 | 36.2 | 18.3 | 13 | 11.5
3 | C[C@H]1C[C@H]2[C@@H]3CC[C@](O)(C(=O)CO)[C@@]3(C)C[C@H](O)[C@@H]2[C@@]\4(C)/C=C\C(=O)\C=C14 | 82.1 | 110 | 115 | 104 | 113 | 115 | 92.3 | 89.9 | 89.6 | 94.1 | 95.6 | 81.4 | 95.3 | 90.6 | 101 | 104 | 97.1 | 93.1 | 89.5 | 89.5 | 88.4 | 92.8 | 72.9 | 88.5 | 91.4 | 102 | 102 | 93.1 | 100 | 90.4 | 101 | 105 | 84.6
4 | C/C(=N\NC(=S)N1CCC1)c1ccccn1 | 104 | 76.1 | 48.5 | 29.9 | 20.8 | 6.85 | 5.67 | 4.05 | 2.98 | 15.2 | 5.74 | 107 | 96.5 | 74.6 | 15.3 | 13 | 7.95 | 6.53 | 8.3 | 2.84 | 13.7 | 11.8 | 99.3 | 93.6 | 37.7 | 19.6 | 17.9 | 8.08 | 6.69 | 5.23 | 2.95 | 8.3 | 13.1
5 | N[S+](=O)([O-])c1cc2c(cc1Cl)NC(C(Cl)Cl)N[S+]2(=O)[O-] (configuration not stated) | 96.9 | 107 | 113 | 117 | 111 | 135 | 136 | 130 | 121 | 125 | 124 | 105 | 96.1 | 105 | 107 | 102 | 103 | 123 | 108 | 102 | 125 | 110 | 112 | 114 | 109 | 118 | 112 | 118 | 120 | 126 | 125 | 141 | 120
6 | O=C(O)CCCCC(CCSCc1ccccc1)SCc1ccccc1 (configuration not stated) | 109 | 104 | 105 | 117 | 124 | 115 | 118 | 135 | 110 | 86 | 28.7 | 108 | 112 | 115 | 113 | 121 | 114 | 107 | 102 | 109 | 100 | 39.1 | 122 | 116 | 124 | 123 | 120 | 134 | 131 | 129 | 112 | 99.9 | 55.5
7 | CC(C)=CCC/C(C)=C/CC/C(C)=C/CSc1ccccc1C(=O)O | 93.2 | 119 | 104 | 104 | 116 | 102 | 90.4 | 68.8 | 76.4 | 57.4 | 29.8 | 103 |  | 104 | 103 | 96.1 | 99.1 | 96.2 | 95.2 | 86.8 | 67.9 | 43.5 | 98.2 | 103 | 109 | 106 | 116 | 97 | 87 | 77.1 | 61.8 | 64 | 39.3
8 | CC1=C(/C=C/C(C)=C/C=C/C(C)=C\C(=O)O)C(C)(C)CCC1 | 85.3 | 99.5 | 85.6 | 92.5 | 105 | 96.2 | 97.1 | 84.3 | 84.2 | 83.4 | 97.4 | 75.9 | 82.4 | 78.7 | 86.3 | 89.5 | 97.2 | 93.6 | 84.1 | 84.3 | 86.6 | 80.5 | 82 | 90.6 | 86 | 102 | 93.2 | 87.9 | 95.1 | 87.2 | 76.6 | 87.1 | 77.3
